The record followed here is PubChem BioAssay (NCI).

Some test systems named below: NCI-H23 lung; SN12C renal; HL-60(TB) leukemia; COLO 205 colon; CCRF-CEM leukemia; UACC-62 melanoma; RPMI-8226 leukemia; IGROV1 ovarian; SNB-75 CNS; RXF 393 renal.
Holding throughout (assay): DTP human tumour cell line panel, 48 h

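96-well plates; 48 h exposure; 5 concentrations. Endpoints by linear interpolation between flanking doses. Not reached: highest tested concentration assigned. Here, GI50 denotes the concentration required for 50% inhibition of growth. The concentration for full growth arrest is given as TGI.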 Bounds are passed on as bounds.

Regarding `COc1cc(C2C3=C(COC3=O)Oc3cc4c(cc32)OCO4)cc(OC)c1O` (configuration not stated), the TGI is 1.81 µM in the test with NCI-H23 lung; 23.2 µM with SN12C renal; 0.294 µM with HL-60(TB) leukemia; 0.0776 µM with COLO 205 colon; above 66.9 µM in the test on CCRF-CEM leukemia; 2.69 µM in the test on UACC-62 melanoma. Also, the TGI in the test on RPMI-8226 leukemia is above 41.9 µM; in the test on IGROV1 ovarian it was 21.9 µM.

As for `CC(C)(C)CC(C)(C)c1cc(O)c(O)c(CN2CCCCC2)c1`, the TGI with NCI-H23 lung amounted to 29.6 µM; in the test on SNB-75 CNS it was 37.3 µM; in the test on SN12C renal it was 30.3 µM; in the test with HL-60(TB) leukemia, 31.6 µM; with COLO 205 colon, 25.3 µM; in the test on UACC-62 melanoma it was 29.8 µM. The values for the TGI in the test on RXF 393 renal, in the test on RPMI-8226 leukemia and in the test on IGROV1 ovarian were 29.2 µM, 30.6 µM and 34.6 µM, respectively.

Turning to `Nc1nc(Cl)cc(NC23CC4CC(CC(C4)C2)C3)n1`, the total growth inhibition concentration (TGI) with NCI-H23 lung was above 100 µM; in the test with SNB-75 CNS, 90.8 µM; with SN12C renal, above 100 µM; in the test with COLO 205 colon it was above 100 µM; with CCRF-CEM leukemia, above 100 µM; with UACC-62 melanoma, above 100 µM. Besides, the total growth inhibition concentration (TGI) in the test on RXF 393 renal, in the test with RPMI-8226 leukemia and with IGROV1 ovarian was above 100 µM in each case.

Consider `COc1cc2cc(C(=O)N3CC(COS(C)(=O)=O)c4ccc(O)cc43)[nH]c2c(OC)c1OC` (configuration not stated), for which the TGI in the test with NCI-H23 lung is 0.00286 µM; in the test with SNB-75 CNS, 0.00149 µM; in the test on SN12C renal it was 0.0165 µM; in the test on COLO 205 colon it was 0.00194 µM; in the test with CCRF-CEM leukemia it was above 100 µM; in the test on RXF 393 renal, below 0.0001 µM. The molecule further returned a TGI in the test with IGROV1 ovarian of 0.0378 µM.

With `CC(=O)NC1C(OCc2ccccc2)OC(CO)C(O)C1OC(C)C(=O)NC(C(=O)NC(CCC(=O)NCCCCNc1c2ccccc2nc2cccc([N+](=O)[O-])c12)C(N)=O)C(C)C` (configuration not stated), the TGI in the test on NCI-H23 lung was determined as 4.75 µM; in the test with SNB-75 CNS, 10.5 µM; with SN12C renal it was 9.53 µM; in the test with HL-60(TB) leukemia it was 6.77 µM; in the test with COLO 205 colon, 11.6 µM; in the test with UACC-62 melanoma, 5.03 µM. Besides, the concentration for total growth inhibition (TGI) with RXF 393 renal amounted to 3.56 µM; with RPMI-8226 leukemia, 2.39 µM; in the test on IGROV1 ovarian, 10.4 µM.

Consider `c1ccc(/C(=N/Nc2ccncn2)c2ccccn2)cc1`, for which the TGI with NCI-H23 lung was 46.5 µM; in the test with SNB-75 CNS, 57.8 µM; in the test with SN12C renal, above 100 µM; in the test with CCRF-CEM leukemia, above 100 µM; with UACC-62 melanoma it was above 100 µM; in the test with RXF 393 renal, above 100 µM. Also, the concentration for total growth inhibition (TGI) was above 100 µM with RPMI-8226 leukemia and 53.6 µM in the test with IGROV1 ovarian.

On to `Cc1nc(N)c(N2CCN(CN)CC2)c(=O)[nH]1`, for which the TGI in the test on NCI-H23 lung, in the test on SNB-75 CNS, with SN12C renal, in the test on HL-60(TB) leukemia, in the test on COLO 205 colon and with CCRF-CEM leukemia was above 100 µM in each case. Besides, the TGI with RPMI-8226 leukemia was above 100 µM.

Turning to `COc1ccc2cc(CNCCCCCCNCc3ccc4cc(OC)ccc4c3)ccc2c1`, the TGI with NCI-H23 lung was 3.8 µM; with SNB-75 CNS it was 2.66 µM; in the test on SN12C renal, 2.67 µM; in the test with HL-60(TB) leukemia it was 0.396 µM; in the test with COLO 205 colon it was 0.291 µM; in the test on UACC-62 melanoma, 2.8 µM. Besides, the TGI in the test with RXF 393 renal amounted to 3.07 µM; in the test with IGROV1 ovarian, 3.15 µM.

On to `CCOP(=O)(OCC)/C(=C/c1cccs1)CC(C)=O`, for which the TGI with NCI-H23 lung, in the test on SNB-75 CNS, in the test on SN12C renal, in the test with COLO 205 colon, with CCRF-CEM leukemia and in the test on UACC-62 melanoma was above 100 µM throughout. For the same molecule, the TGI in the test with RXF 393 renal and with IGROV1 ovarian was above 100 µM each time.

As for `CCN=C1C=CC(=C(c2ccc(N(CC)CC)cc2)c2ccc(N(CC)CC)cc2)c2ccccc21`, the concentration for 50% growth inhibition (GI50) is 0.0304 µM in the test on SNB-75 CNS; 0.0471 µM in the test on CCRF-CEM leukemia; 0.0983 µM in the test with UACC-62 melanoma; 0.0585 µM in the test on RXF 393 renal; 0.0233 µM with RPMI-8226 leukemia. Moreover, the TGI in the test on SNB-75 CNS stood at 0.879 µM; with CCRF-CEM leukemia it was 1.52 µM; with UACC-62 melanoma, 1.11 µM; in the test on RXF 393 renal, 0.384 µM; in the test with RPMI-8226 leukemia, 0.0702 µM.

With `O=C(O)COc1cc(-c2ccccc2)nc2cc(F)ccc12`, the TGI in the test on NCI-H23 lung, in the test on SNB-75 CNS, with SN12C renal, in the test on HL-60(TB) leukemia, with COLO 205 colon and with CCRF-CEM leukemia was above 100 µM in each case. For the same molecule, the TGI in the test on UACC-62 melanoma, with RPMI-8226 leukemia and with IGROV1 ovarian was above 100 µM throughout.

Turning to `CC(C)C(C/C=C1\CC(CO)(COC(=O)C2CCCCC2)OC1=O)C(C)C` (configuration not stated), the TGI with NCI-H23 lung is 40.2 µM; in the test on SNB-75 CNS, 26.5 µM; in the test on SN12C renal, 31.2 µM; in the test with COLO 205 colon, 23.6 µM; in the test on CCRF-CEM leukemia, 43 µM; in the test on UACC-62 melanoma, above 100 µM. Besides, the results for the TGI with RXF 393 renal and with IGROV1 ovarian were 35.4 µM and 39.5 µM, respectively.

With `Cc1ccc(S(=O)(=O)Nc2nnc(S(N)(=O)=O)s2)cc1`, the TGI in the test on NCI-H23 lung, in the test with SN12C renal, in the test with COLO 205 colon, in the test on UACC-62 melanoma, with RXF 393 renal and with RPMI-8226 leukemia was above 100 µM each time.

As for `NNC(=O)C1(NC(=O)c2ccccc2)C(c2ccccc2)C(c2ccccc2)=NN1c1ccccc1` (configuration not stated), the TGI was above 100 µM in the test with NCI-H23 lung; above 100 µM with SNB-75 CNS; above 100 µM with SN12C renal; above 100 µM with COLO 205 colon; 98.4 µM in the test with CCRF-CEM leukemia; 56.9 µM in the test with UACC-62 melanoma. In addition, the TGI is 53.4 µM in the test on RXF 393 renal, above 100 µM in the test with RPMI-8226 leukemia and above 100 µM in the test with IGROV1 ovarian.

For `CN=C(/N=c1\ssc(=NC)n1C)N(C)C`, the TGI with NCI-H23 lung, in the test on SNB-75 CNS, with SN12C renal, in the test with HL-60(TB) leukemia, in the test on COLO 205 colon and with UACC-62 melanoma was above 100 µM each time. Also, the TGI in the test with RXF 393 renal, in the test with RPMI-8226 leukemia and in the test with IGROV1 ovarian was above 100 µM in each case.

For `C=CCC1C(O[Si](C)(C)C(C)(C)C)C(CO[Si](C)(C)C(C)(C)C)OC1n1ccc(=O)[nH]c1=O` (configuration not stated), the TGI in the test on NCI-H23 lung came out at 2.8 µM; in the test on SNB-75 CNS, 2.79 µM; in the test with SN12C renal, 2.8 µM; in the test on COLO 205 colon, 3.13 µM; in the test on CCRF-CEM leukemia, 2.86 µM; with UACC-62 melanoma, 3.46 µM. Besides, the results for the TGI with RPMI-8226 leukemia and in the test with IGROV1 ovarian were 4.89 µM and 3.02 µM, respectively.

One may read the TGI as the concentration at which net growth stops. A lower TGI goes with greater sensitivity of the cells. The term GI50 denotes the concentration giving 50% growth inhibition.
